According to ChEMBL document CHEMBL1201861, “Genomics of Drug Sensitity in Cancer screening data, Wellcome Trust Sanger Institute”:

Legend:
Assay in all cases: cells
Panc1005 = type: functional, cell-based, Homo sapiens; details: Homo sapiens, Panc1005
Description: SANGER: Inhibition of human PANC-10-05 cell growth in a cell viability assay.

IMR-5 = type: functional, cell-based, Homo sapiens; details: Homo sapiens, IMR-5
Description: SANGER: Inhibition of human IMR-5 cell growth in a cell viability assay.

SJRH30 = type: functional, cell-based, Homo sapiens; details: Homo sapiens, SJRH30
Description: SANGER: Inhibition of human SJRH30 cell growth in a cell viability assay.

REH = type: functional, cell-based, Homo sapiens; details: Homo sapiens, REH
Description: SANGER: Inhibition of human REH cell growth in a cell viability assay.

CHP-212 = type: functional, cell-based, Homo sapiens; details: Homo sapiens, CHP-212
Description: SANGER: Inhibition of human CHP-212 cell growth in a cell viability assay.

HCC1569 = type: functional, cell-based, Homo sapiens; details: Homo sapiens, HCC1569
Description: SANGER: Inhibition of human HCC1569 cell growth in a cell viability assay.

CAL-12T = type: functional, cell-based, Homo sapiens; details: Homo sapiens, CAL-12T
Description: SANGER: Inhibition of human CAL-12T cell growth in a cell viability assay.

RT-112 = type: functional, cell-based, Homo sapiens; details: Homo sapiens, RT-112
Description: SANGER: Inhibition of human RT-112 cell growth in a cell viability assay.

SK-MEL-2 = type: functional, cell-based, Homo sapiens; details: Homo sapiens, SK-MEL-2
Description: SANGER: Inhibition of human SK-MEL-2 cell growth in a cell viability assay.

MHH-NB-11 = type: functional, cell-based, Homo sapiens; details: Homo sapiens, MHH-NB-11
Description: SANGER: Inhibition of human MHH-NB-11 cell growth in a cell viability assay.

KM12 = type: functional, cell-based, Homo sapiens; details: Homo sapiens, KM12
Description: SANGER: Inhibition of human KM12 cell growth in a cell viability assay.

D-263MG = type: functional, cell-based, Homo sapiens; details: Homo sapiens, D-263MG
Description: SANGER: Inhibition of human D-263MG cell growth in a cell viability assay.

BCPAP = type: functional, cell-based, Homo sapiens; details: Homo sapiens, BCPAP
Description: SANGER: Inhibition of human BCPAP cell growth in a cell viability assay.

MFH-ino = type: functional, cell-based, Homo sapiens; details: Homo sapiens, MFH-ino
Description: SANGER: Inhibition of human MFH-ino cell growth in a cell viability assay.

SF-126 = type: functional, cell-based, Homo sapiens; details: Homo sapiens, SF-126
Description: SANGER: Inhibition of human SF126 cell growth in a cell viability assay.

A2058 = type: functional, cell-based, Homo sapiens; details: Homo sapiens, A2058
Description: SANGER: Inhibition of human A2058 cell growth in a cell viability assay.

SIMA = type: functional, cell-based, Homo sapiens; details: Homo sapiens, SIMA
Description: SANGER: Inhibition of human SIMA cell growth in a cell viability assay.

EW-18 = type: functional, cell-based, Homo sapiens; details: Homo sapiens, EW-18
Description: SANGER: Inhibition of human EW-18 cell growth in a cell viability assay.

Ca-Ski = type: functional, cell-based, Homo sapiens; details: Homo sapiens, Ca-Ski
Description: SANGER: Inhibition of human Ca-Ski cell growth in a cell viability assay.

PF-382 = type: functional, cell-based, Homo sapiens; details: Homo sapiens, PF-382
Description: SANGER: Inhibition of human PF-382 cell growth in a cell viability assay.

CTB-1 = type: functional, cell-based, Homo sapiens; details: Homo sapiens, CTB-1
Description: SANGER: Inhibition of human CTB-1 cell growth in a cell viability assay.

MHH-PREB-1 = type: functional, cell-based, Homo sapiens; details: Homo sapiens, MHH-PREB-1
Description: SANGER: Inhibition of human MHH-PREB-1 cell growth in a cell viability assay.

SK-MEL3 = type: functional, cell-based, Homo sapiens, SK-MEL-3; details: Homo sapiens, SK-MEL3
Description: SANGER: Inhibition of human SK-MEL-3 cell growth in a cell viability assay.

COR-L23 = type: functional, cell-based, Homo sapiens; details: Homo sapiens, COR-L23
Description: SANGER: Inhibition of human COR-L23 cell growth in a cell viability assay.

DJM-1 = type: functional, cell-based, Homo sapiens; details: Homo sapiens, DJM-1
Description: SANGER: Inhibition of human DJM-1 cell growth in a cell viability assay.

UACC-812 = type: functional, cell-based, Homo sapiens; details: Homo sapiens, UACC-812
Description: SANGER: Inhibition of human UACC-812 cell growth in a cell viability assay.

MDA-MB-134-VI = type: functional, cell-based, Homo sapiens; details: Homo sapiens, MDA-MB-134-VI
Description: SANGER: Inhibition of human MDA-MB-134-VI cell growth in a cell viability assay.

NY = type: functional, cell-based, Homo sapiens; details: Homo sapiens, NY
Description: SANGER: Inhibition of human NY cell growth in a cell viability assay.

NCI-H2087 = type: functional, cell-based, Homo sapiens; details: Homo sapiens, NCI-H2087
Description: SANGER: Inhibition of human NCI-H2087 cell growth in a cell viability assay.

U-87 MG = type: functional, cell-based, Homo sapiens, U-87MG ATCC; details: Homo sapiens, U-87 MG
Description: SANGER: Inhibition of human U-87-MG cell growth in a cell viability assay.

MPP-89 = type: functional, cell-based, Homo sapiens; details: Homo sapiens, MPP-89
Description: SANGER: Inhibition of human MPP-89 cell growth in a cell viability assay.

U-698-M = type: functional, cell-based, Homo sapiens; details: Homo sapiens, U-698-M
Description: SANGER: Inhibition of human U-698-M cell growth in a cell viability assay.

KMS-12-PE = type: functional, cell-based, Homo sapiens; details: Homo sapiens, KMS-12-PE
Description: SANGER: Inhibition of human KMS-12-PE cell growth in a cell viability assay.

NCI-H1522 = type: functional, cell-based, Homo sapiens; details: Homo sapiens, NCI-H1522
Description: SANGER: Inhibition of human NCI-H1522 cell growth in a cell viability assay.

U-251 = type: functional, cell-based, Homo sapiens; details: Homo sapiens, U-251
Description: SANGER: Inhibition of human U251 cell growth in a cell viability assay.

DMS-153 = type: functional, cell-based, Homo sapiens; details: Homo sapiens, DMS-153
Description: SANGER: Inhibition of human DMS-153 cell growth in a cell viability assay.

RCM-1 = type: functional, cell-based, Homo sapiens; details: Homo sapiens, RCM-1
Description: SANGER: Inhibition of human RCM-1 cell growth in a cell viability assay.

ETK-1 = type: functional, cell-based, Homo sapiens; details: Homo sapiens, ETK-1
Description: SANGER: Inhibition of human ETK-1 cell growth in a cell viability assay.

CAMA-1 = type: functional, cell-based, Homo sapiens; details: Homo sapiens, CAMA-1
Description: SANGER: Inhibition of human CAMA-1 cell growth in a cell viability assay.

EVSA-T = type: functional, cell-based, Homo sapiens; details: Homo sapiens, EVSA-T
Description: SANGER: Inhibition of human EVSA-T cell growth in a cell viability assay.

PA-1 = type: functional, cell-based, Homo sapiens; details: Homo sapiens, PA-1
Description: SANGER: Inhibition of human PA-1 cell growth in a cell viability assay.

RS4-11 = type: functional, cell-based, Homo sapiens; details: Homo sapiens, RS4-11
Description: SANGER: Inhibition of human RS4-11 cell growth in a cell viability assay.

MC-CAR = type: functional, cell-based, Homo sapiens; details: Homo sapiens, MC-CAR
Description: SANGER: Inhibition of human MC-CAR cell growth in a cell viability assay.

CAL-85-1 = type: functional, cell-based, Homo sapiens; details: Homo sapiens, CAL-85-1
Description: SANGER: Inhibition of human CAL-85-1 cell growth in a cell viability assay.

A-431 = type: functional, cell-based, Homo sapiens; details: Homo sapiens, A-431
Description: SANGER: Inhibition of human A431 cell growth in a cell viability assay.

MFM-223 = type: functional, cell-based, Homo sapiens; details: Homo sapiens, MFM-223
Description: SANGER: Inhibition of human MFM-223 cell growth in a cell viability assay.

SW1783 = type: functional, cell-based, Homo sapiens; details: Homo sapiens, SW1783
Description: SANGER: Inhibition of human SW1783 cell growth in a cell viability assay.

SJSA-1 = type: functional, cell-based, Homo sapiens; details: Homo sapiens, SJSA-1
Description: SANGER: Inhibition of human SJSA-1 cell growth in a cell viability assay.

## N#Cc1c(O)c2c(-c3ccc(-c4ccccc4O)cc3)csc2[nH]c1=O
Panc1005
  IC50: > 1020 nM
IMR-5
  IC50: > 1020 nM
SJRH30
  IC50: 495 nM
REH
  IC50: 104 nM
CHP-212
  IC50: > 1020 nM
HCC1569
  IC50: > 1020 nM
CAL-12T
  IC50: > 1020 nM
RT-112
  IC50: > 1020 nM
SK-MEL-2
  IC50: > 1020 nM
MHH-NB-11
  IC50: 323 nM
KM12
  IC50: 32.1 nM
D-263MG
  IC50: > 1020 nM
BCPAP
  IC50: > 1020 nM
MFH-ino
  IC50: > 1020 nM
SF-126
  IC50: > 1020 nM
A2058
  IC50: > 1020 nM
SIMA
  IC50: > 1020 nM
EW-18
  IC50: 451 nM
Ca-Ski
  IC50: > 1020 nM
PF-382
  IC50: 85.9 nM
CTB-1
  IC50: > 1020 nM
MHH-PREB-1
  IC50: 182 nM
SK-MEL3
  IC50: > 1020 nM
COR-L23
  IC50: > 1020 nM
DJM-1
  IC50: > 1020 nM
UACC-812
  IC50: > 1020 nM
MDA-MB-134-VI
  IC50: > 1020 nM
NY
  IC50: > 1020 nM
NCI-H2087
  IC50: 214 nM
U-87 MG
  IC50: 333 nM
MPP-89
  IC50: > 1020 nM
U-698-M
  IC50: 219 nM
KMS-12-PE
  IC50: 419 nM
NCI-H1522
  IC50: 194 nM
U-251
  IC50: > 1020 nM
DMS-153
  IC50: 373 nM
RCM-1
  IC50: > 1020 nM
ETK-1
  IC50: > 1020 nM
CAMA-1
  IC50: > 1020 nM
EVSA-T
  IC50: 381 nM
PA-1
  IC50: > 1020 nM
RS4-11
  IC50: 85.7 nM
MC-CAR
  IC50: 172 nM
CAL-85-1
  IC50: > 1020 nM
A-431
  IC50: 29.2 nM
MFM-223
  IC50: > 1020 nM
SW1783
  IC50: > 1020 nM
SJSA-1
  IC50: > 1020 nM

## C=C(c1ccc(C(=O)O)cc1)c1cc2c(cc1C)C(C)(C)CCC2(C)C [BEXAROTENE]
Panc1005
  IC50: > 8000 nM
IMR-5
  IC50: > 8000 nM
SJRH30
  IC50: > 8000 nM
REH
  IC50: > 8000 nM
CHP-212
  IC50: > 8000 nM
HCC1569
  IC50: > 8000 nM
CAL-12T
  IC50: 3960 nM
RT-112
  IC50: > 8000 nM
SK-MEL-2
  IC50: > 8000 nM
MHH-NB-11
  IC50: > 8000 nM
KM12
  IC50: > 8000 nM
D-263MG
  IC50: > 8000 nM
BCPAP
  IC50: > 8000 nM
MFH-ino
  IC50: 7210 nM
SF-126
  IC50: > 8000 nM
A2058
  IC50: > 8000 nM
SIMA
  IC50: > 8000 nM
EW-18
  IC50: > 8000 nM
Ca-Ski
  IC50: > 8000 nM
PF-382
  IC50: > 8000 nM
CTB-1
  IC50: > 8000 nM
MHH-PREB-1
  IC50: > 8000 nM
SK-MEL3
  IC50: > 8000 nM
COR-L23
  IC50: > 8000 nM
DJM-1
  IC50: > 8000 nM
UACC-812
  IC50: > 8000 nM
MDA-MB-134-VI
  IC50: > 8000 nM
NY
  IC50: > 8000 nM
NCI-H2087
  IC50: > 8000 nM
U-87 MG
  IC50: > 8000 nM
MPP-89
  IC50: > 8000 nM
U-698-M
  IC50: > 8000 nM
KMS-12-PE
  IC50: > 8000 nM
NCI-H1522
  IC50: > 8000 nM
U-251
  IC50: > 8000 nM
DMS-153
  IC50: > 8000 nM
RCM-1
  IC50: > 8000 nM
ETK-1
  IC50: > 8000 nM
CAMA-1
  IC50: > 8000 nM
EVSA-T
  IC50: > 8000 nM
PA-1
  IC50: > 8000 nM
RS4-11
  IC50: > 8000 nM
MC-CAR
  IC50: > 8000 nM
CAL-85-1
  IC50: > 8000 nM
A-431
  IC50: > 8000 nM
MFM-223
  IC50: > 8000 nM
SW1783
  IC50: > 8000 nM
SJSA-1
  IC50: > 8000 nM

## CCC/C=C/C=C/C(=O)O[C@H]1/C(=C/C(=O)OC)C[C@H]2C[C@H]([C@@H](C)O)OC(=O)C[C@H](O)C[C@@H]3C[C@H](OC(C)=O)C(C)(C)[C@](O)(C[C@@H]4C/C(=C/C(=O)OC)C[C@H](/C=C/C(C)(C)[C@]1(O)O2)O4)O3 [BRYOSTATIN 1]
Panc1005
  IC50: > 8 nM
IMR-5
  IC50: > 8 nM
SJRH30
  IC50: > 8 nM
REH
  IC50: > 8 nM
CHP-212
  IC50: > 8 nM
HCC1569
  IC50: > 8 nM
CAL-12T
  IC50: > 8 nM
RT-112
  IC50: > 8 nM
SK-MEL-2
  IC50: > 8 nM
MHH-NB-11
  IC50: > 8 nM
KM12
  IC50: > 8 nM
D-263MG
  IC50: > 8 nM
BCPAP
  IC50: > 8 nM
MFH-ino
  IC50: > 8 nM
SF-126
  IC50: > 8 nM
A2058
  IC50: > 8 nM
SIMA
  IC50: > 8 nM
EW-18
  IC50: > 8 nM
Ca-Ski
  IC50: > 8 nM
PF-382
  IC50: > 8 nM
CTB-1
  IC50: > 8 nM
MHH-PREB-1
  IC50: > 8 nM
SK-MEL3
  IC50: > 8 nM
COR-L23
  IC50: > 8 nM
DJM-1
  IC50: > 8 nM
UACC-812
  IC50: > 8 nM
MDA-MB-134-VI
  IC50: > 8 nM
NY
  IC50: > 8 nM
NCI-H2087
  IC50: > 8 nM
U-87 MG
  IC50: > 8 nM
MPP-89
  IC50: > 8 nM
U-698-M
  IC50: > 8 nM
KMS-12-PE
  IC50: > 8 nM
NCI-H1522
  IC50: > 8 nM
U-251
  IC50: > 8 nM
DMS-153
  IC50: > 8 nM
RCM-1
  IC50: > 8 nM
ETK-1
  IC50: > 8 nM
CAMA-1
  IC50: > 8 nM
EVSA-T
  IC50: > 8 nM
PA-1
  IC50: > 8 nM
RS4-11
  IC50: > 8 nM
MC-CAR
  IC50: > 8 nM
CAL-85-1
  IC50: 5.52 nM
A-431
  IC50: > 8 nM
MFM-223
  IC50: > 8 nM
SW1783
  IC50: > 8 nM
SJSA-1
  IC50: > 8 nM
